In patent US20090181409A1, “Optical biosensor method for cell-cell interaction” (priority 2008, published 2009):

What was measured:
CHO-ICAM1 cells = test: NK92 cell-induced N-DMR signal of CHO-ICAM1 cells (Epic RWG biosensor), modulation by pharmacological agents; type: cell-based, Chinese hamster; conditions: CHO-ICAM1 cells pretreated with agent for 1 hour before NK cells; killer:target ratio 1; 28° C.
Source text: The impacts of four pharmacological agents were examined on the NK92 cell-induced DMR signal of CHO-ICAM1 cells. FIG. 4 illustrate the modulation profile (response v. modulator concentration in microM) of the natural killer cell-induced DMR signal of the target cell layer by four different modulators at different doses:
Cell culture—Natural killer cells-NK92MI, both parental CHO-K1 and engineered CHO expressing ICAM1 receptor (CHO-ICAM1) were purchased from American Type Culture Collection (Manassas, Va.). NK92MI cells were grown in RPMI medium plus 12.5% horse serum and 12.5 fetal bovine serum (FBS) and antibiotics. CHO-K1 cells and CHO-ICAM1 cells were grown in RPMI supplemented with 10% fetal bovine serum (FBS) and antibiotics. Approximately 1-2×10^4 target cells of CHO-K1 or CHO-ICAM1 in 50 μl medium were placed in each well of Epic® 384-well microplate. After cell seeding, the cells were cultured at 37° C. under air/5% CO2 until a high degree, e.g. 90%, of confluence was reached (e.g., about 24 hrs). Cells were continuously cultured for over night with their corresponding media without any serum to keep cells at a quiescent state and cell confluence was over 95%.
Epic® system and DMR assays—An Epic® beta system was used during this study. For cell-cell interaction study, target cell density was at 95-100% confluence and the cells were finally maintained with the appropriate medium as described above. Cell number of NK92MI was counted with Beckman Coulter Particle Counter (Beckman Coulter, Fullerton, Calif.). Unless stated otherwise, a ratio of 1 between killer cells and target cells was used. NK92MI cells were suspended in RPMI plus 2% FBS. A 20-microliter solution of NK92MI was aliquoted to each well of a normal 384-well microplate (Corning Inc., Corning, N.Y.). The plates of the target-cell and the natural killer cell were incubated in the Epic® instrument for at least 30 minutes to reach 28° C. For pharmacological agent studies, the Icam1 cells had been pretreated with the agents for 1 hour before the NK cells were introduced. All studies were carried out at 28° C. with the lid of the microplate on except for a short period of time (e.g., about several seconds) when the solution was introduced, in order to minimize the effect of temperature fluctuation and evaporative cooling.

D1 cells = test: NK92 cell-induced optical signal of D1 cells (Epic RWG biosensor), modulation by pharmacological agents; type: cell-based, mouse; conditions: D1 cells pretreated with agent for 1 hour before NK cells; killer:target ratio 1; 28° C.
Experimental: The impact of six pharmacological agents was examined on the NK92 cell-induced optical signal of D1 cells. […] Brefeldin A (BFA), and Camptothecin are defined above. Kp7-6 is an exocyclic cystine-knot peptide that specifically antagonizes Fas/FasL-mediated cellular apoptotic signals, for example, it can reduce 58% of FasL-induced apoptosis in Jurkat cells at 1 mg/mL. Latrunculin inhibits actin polymerization in vitro and disrupts microfilament organization as well as microfilament-mediated processes. […] Wortmannin is a potent, selective, cell-permeable and irreversible inhibitor of phosphatidylinositol 3-kinase.
Cell culture—Natural killer cells-NK92MI and the multipotent mouse bone marrow D1 cell line were from American Type Culture Collection (Manassas, Va.). NK92MI cells were grown in RPMI medium plus 12.5% horse serum and 12.5 fetal bovine serum (FBS) and antibiotics. D1 cells were grown in Dulbecco's Modified Eagle's Medium supplemented with 10% fetal bovine serum (FBS) and antibiotics. Approximately 1×10^4 to 2×10^4 target cells of D1 in 50 μL medium were placed in each well of Epic® 384-well microplate. After cell seeding, the cells were cultured at 37° C. under air/5% CO2 until a high degree, e.g., 90% of confluence was reached (about 24 hrs). Cells were continuously cultured overnight in their corresponding media without any serum to keep cells at a quiescent state and cell confluence was over about 95%.
Epic® system and DMR assays—Epic® beta system was used during this study. For cell-cell interaction study, target cell density was at about 95-100% confluence and the cells were finally maintained with the appropriate medium as described above. Cell number of NK92MI was counted with Beckman Coulter Particle Counter. Unless stated otherwise, a ratio of 1 between killer cells and target cells was used. NK92MI cells were suspended in RPMI plus 2% FBS. A 20 μL aliquot of NK92MI solution was added to each well of a normal 384-well microplate (Corning Inc., Corning, N.Y.). The plates of the target cells and the natural killer cells were incubated in the Epic® instrument for at least 30 minutes to reach 28° C. For pharmacological agent studies, the D1 cells were pretreated with the agents for 1 hour before NK cells were introduced. All studies were carried out at 28° C. for consistency and having the lid of the microplate continuously on except for a short period of time (e.g., about seconds) when the solution was introduced to minimize the effect of temperature fluctuation and evaporative cooling.

RhoA = RhoA (Homo sapiens, UniProt P61586); conditions: cited from earlier work
Chain of RhoA (P61586 whole entry, species assumed): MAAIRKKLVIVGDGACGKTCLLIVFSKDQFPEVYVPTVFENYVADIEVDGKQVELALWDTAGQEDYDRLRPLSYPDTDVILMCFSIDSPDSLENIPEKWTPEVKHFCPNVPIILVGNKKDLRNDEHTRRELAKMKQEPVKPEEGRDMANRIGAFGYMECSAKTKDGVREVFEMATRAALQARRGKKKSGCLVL

**Q.** For `COC(=O)CC[C@H](NC(=O)[C@H](CC(=O)OC)NC(=O)OCc1ccccc1)C(=O)N[C@H](C(=O)N[C@@H](CC(=O)OC)C(=O)CF)C(C)C` [caspase 3 inhibitor], which “effect on NK92-induced N-DMR of CHO-ICAM1 cells” value (shortened to “effect on NK92-induced N-DMR”) (CHO-ICAM1 cells) is on record?
**A.** little effect

**Q.** What does the source list for `CC[C@@]1(O)C(=O)OCc2c1cc1n(c2=O)Cc2cc3ccccc3nc2-1` [camptothecin, Camptothecin]?
**A.** effect on NK92-induced signals of D1 cells (D1 cells): dose dependently increases; effect on NK92-induced N-DMR of CHO-ICAM1 cells (CHO-ICAM1 cells): dose dependently increases

**Q.** Which “effect on NK92-induced signals of D1 cells” value (“effect … of D1 cells” below) (D1 cells) does the source give for `CCN(CC)CCCC(C)Nc1nc(C)cc(Nc2ccc3nc(C)cc(N)c3c2)n1` (racemic) [Rac1 inhibitor] here?
**A.** dose dependently increases

**Q.** And the “effect on RhoA activation” value (RhoA)?
**A.** no effect

**Q.** Which “effect … of D1 cells” value (D1 cells) does the source give for `C[C@H]1CCC/C=C/[C@@H]2C[C@H](O)C[C@H]2[C@H](O)/C=C/C(=O)O1` [BFA, Brefeldin A] here?
**A.** dose dependently increases

**Q.** What about the “effect on NK92-induced N-DMR” value (CHO-ICAM1 cells) of the same compound?
**A.** dose dependently increases

**Q.** For `N#CC(=C(/N)Sc1ccccc1N)/C(C#N)=C(\N)Sc1ccccc1N` [U0126], which “effect on NK92-induced N-DMR” value (CHO-ICAM1 cells) is on record?
**A.** dose-dependently suppressed

**Q.** For `CC[C@]1(O)C[C@@H]2CN(CCc3c([nH]c4ccccc34)[C@@](C(=O)OC)(c3cc4c(cc3OC)N(C)[C@H]3[C@@](O)(C(=O)OC)[C@H](OC(C)=O)[C@]5(CC)C=CCN6CC[C@]43[C@@H]65)C2)C1` [vinblastine, Vinblastine], which “effect on NK92-induced N-DMR” value (CHO-ICAM1 cells) is on record?
**A.** dose dependently increases

**Q.** For `C/C1=C/C(=O)O[C@@H]2C[C@@H](CC[C@H](C)/C=C\C=C\CC1)O[C@@](O)([C@@H]1CSC(=O)N1)C2` [latrunculin A], which “effect … of D1 cells” value (D1 cells) is on record?
**A.** dose dependently increases
